In ChEMBL document CHEMBL1201862, “PubChem BioAssay data set” (2004):
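All cell lines were grown in 96-well plates and treated with compound for 48 hours. At the GI50, growth is halved.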 Calls of active or inactive are those of the source. Cut-off read from the data, not from the text of the source: active = GI50 up to about 1.1 µM and inactive = higher.

Tests used:
Test in all cases: NCI-60 cell line screen, 48 h
786-0 = system: 786-0
A498 = system: A498
A549 = system: A549
ACHN = system: ACHN
BT-549 = system: BT-549
CCRF-CEM = system: CCRF-CEM
COLO 205 = system: COLO 205
DU-145 = system: DU-145
EKVX = system: EKVX
HCC 2998 = system: HCC 2998
HCT-116 = system: HCT-116
HCT-15 = system: HCT-15
HL-60 = system: HL-60
HOP-62 = system: HOP-62
HOP-92 = system: HOP-92
HT-29 = system: HT-29
Hs-578T = system: Hs-578T
IGROV-1 = system: IGROV-1
K562 = system: K562
KM12 = system: KM12
M14 = system: M14
MCF7 = system: MCF7
MDA-MB-435 = system: MDA-MB-435
MDA-N = system: MDA-N
MOLT-4 = system: MOLT-4
Malme-3M = system: Malme-3M
NCI-H226 = system: NCI-H226
NCI-H23 = system: NCI-H23
NCI-H460 = system: NCI-H460
NCI/ADR-RES = system: NCI/ADR-RES
OVCAR-3 = system: OVCAR-3
OVCAR-5 = system: OVCAR-5
OVCAR-8 = system: OVCAR-8
PC-3 = system: PC-3
RPMI-8226 = system: RPMI-8226
RXF 393 = system: RXF 393
SF-268 = system: SF-268
SF-295 = system: SF-295
SF-539 = system: SF-539
SK-MEL-28 = system: SK-MEL-28
SK-MEL-5 = system: SK-MEL-5
SK-OV-3 = system: SK-OV-3
SN12C = system: SN12C
SNB-19 = system: SNB-19
SNB-75 = system: SNB-75
SW-620 = system: SW-620
T47D = system: T47D
TK-10 = system: TK-10
U-251 = system: U-251
UACC-257 = system: UACC-257
UACC-62 = system: UACC-62
UO-31 = system: UO-31
CAKI-1 = system: CAKI-1
LOX IMVI = system: LOX IMVI
NCI-H522 = system: NCI-H522
OVCAR-4 = system: OVCAR-4
SK-MEL-2 = system: SK-MEL-2
SR = system: SR

NCCCCNCCCNC(=O)c1csc(-c2nc(CCN)sc2Cl)n1
GI50 (786-0): > 100 µM (inactive) | GI50 (A498): > 100 µM (inactive) | GI50 (A549): > 100 µM (inactive) | GI50 (ACHN): > 100 µM (inactive) | GI50 (BT-549): > 100 µM (inactive) | GI50 (CCRF-CEM): > 100 µM (inactive) | GI50 (COLO 205): > 100 µM (inactive) | GI50 (DU-145): > 100 µM (inactive) | GI50 (EKVX): > 100 µM (inactive) | GI50 (HCC 2998): 70.8 µM (inactive) | GI50 (HCT-116): > 100 µM (inactive) | GI50 (HCT-15): > 100 µM | GI50 (HL-60): > 100 µM (inactive) | GI50 (HOP-62): > 100 µM (inactive) | GI50 (HOP-92): 8.85 µM (inactive) | GI50 (HT-29): > 100 µM (inactive) | GI50 (Hs-578T): > 100 µM (inactive) | GI50 (IGROV-1): > 100 µM (inactive) | GI50 (K562): > 100 µM (inactive) | GI50 (KM12): > 100 µM (inactive) | GI50 (M14): > 100 µM (inactive) | GI50 (MCF7): > 100 µM (inactive) | GI50 (MDA-MB-435): > 100 µM (inactive) | GI50 (MDA-N): > 100 µM (inactive) | GI50 (MOLT-4): > 100 µM (inactive) | GI50 (Malme-3M): > 100 µM (inactive) | GI50 (NCI-H226): > 100 µM (inactive) | GI50 (NCI-H23): > 100 µM (inactive) | GI50 (NCI-H460): > 100 µM (inactive) | GI50 (NCI/ADR-RES): > 100 µM (inactive) | GI50 (OVCAR-3): > 100 µM (inactive) | GI50 (OVCAR-5): > 100 µM (inactive) | GI50 (OVCAR-8): > 100 µM (inactive) | GI50 (PC-3): > 100 µM (inactive) | GI50 (RPMI-8226): > 100 µM (inactive) | GI50 (RXF 393): > 100 µM (inactive) | GI50 (SF-268): > 100 µM (inactive) | GI50 (SF-295): > 100 µM (inactive) | GI50 (SF-539): > 100 µM (inactive) | GI50 (SK-MEL-28): > 100 µM (inactive) | GI50 (SK-MEL-5): > 100 µM (inactive) | GI50 (SK-OV-3): > 100 µM (inactive) | GI50 (SN12C): > 100 µM (inactive) | GI50 (SNB-19): > 100 µM (inactive) | GI50 (SNB-75): > 100 µM (inactive) | GI50 (SW-620): > 100 µM (inactive) | GI50 (T47D): > 100 µM (inactive) | GI50 (TK-10): > 100 µM (inactive) | GI50 (U-251): > 100 µM (inactive) | GI50 (UACC-257): > 100 µM (inactive) | GI50 (UACC-62): > 100 µM (inactive) | GI50 (UO-31): > 100 µM (inactive)

CC(C)(C)OC(=O)N(CCCN)CCCCN(CCCN)C(=O)OC(C)(C)C
GI50 (786-0): > 100 µM (inactive) | GI50 (A498): > 100 µM (inactive) | GI50 (A549): > 100 µM (inactive) | GI50 (ACHN): > 100 µM (inactive) | GI50 (BT-549): > 100 µM (inactive) | GI50 (CAKI-1): > 100 µM (inactive) | GI50 (CCRF-CEM): > 100 µM (inactive) | GI50 (COLO 205): > 100 µM (inactive) | GI50 (DU-145): > 100 µM (inactive) | GI50 (EKVX): > 100 µM (inactive) | GI50 (HCC 2998): > 100 µM (inactive) | GI50 (HCT-116): > 100 µM (inactive) | GI50 (HCT-15): > 100 µM | GI50 (HL-60): > 100 µM (inactive) | GI50 (HOP-62): > 100 µM (inactive) | GI50 (HOP-92): > 100 µM (inactive) | GI50 (HT-29): > 100 µM (inactive) | GI50 (Hs-578T): > 100 µM (inactive) | GI50 (IGROV-1): > 100 µM (inactive) | GI50 (K562): > 100 µM (inactive) | GI50 (KM12): > 100 µM (inactive) | GI50 (LOX IMVI): > 100 µM (inactive) | GI50 (M14): > 100 µM (inactive) | GI50 (MCF7): > 100 µM (inactive) | GI50 (MDA-MB-435): > 100 µM (inactive) | GI50 (MOLT-4): > 100 µM (inactive) | GI50 (NCI-H226): > 100 µM (inactive) | GI50 (NCI-H23): > 100 µM (inactive) | GI50 (NCI-H460): > 100 µM (inactive) | GI50 (NCI-H522): > 100 µM (inactive) | GI50 (NCI/ADR-RES): > 100 µM (inactive) | GI50 (OVCAR-3): > 100 µM (inactive) | GI50 (OVCAR-4): > 100 µM (inactive) | GI50 (OVCAR-5): > 100 µM (inactive) | GI50 (OVCAR-8): > 100 µM (inactive) | GI50 (PC-3): > 100 µM (inactive) | GI50 (RPMI-8226): > 100 µM (inactive) | GI50 (RXF 393): > 100 µM (inactive) | GI50 (SF-268): > 100 µM (inactive) | GI50 (SF-295): > 100 µM (inactive) | GI50 (SF-539): > 100 µM (inactive) | GI50 (SK-MEL-28): > 100 µM (inactive) | GI50 (SK-MEL-2): > 100 µM (inactive) | GI50 (SK-MEL-5): > 100 µM (inactive) | GI50 (SK-OV-3): > 100 µM (inactive) | GI50 (SNB-19): > 100 µM (inactive) | GI50 (SNB-75): > 100 µM (inactive) | GI50 (SR): > 100 µM (inactive) | GI50 (SW-620): > 100 µM (inactive) | GI50 (T47D): > 100 µM (inactive) | GI50 (TK-10): > 100 µM (inactive) | GI50 (U-251): > 100 µM (inactive) | GI50 (UACC-257): > 100 µM (inactive) | GI50 (UACC-62): > 100 µM (inactive) | GI50 (UO-31): > 100 µM (inactive)
